According to patent publication US9302999B2, “Substituted triazoles as herbicides” (E. I. DU PONT DE NEMOURS AND COMPANY, priority 2012, dated 2016):

How the values were obtained:
Type in all cases: in vivo
[1] = test system: panicum, fall (fall panicum Panicum dichotomiflorum); assay: Test F pre-/postemergence: panicum, fall
Outline: (§1)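 Visual response scores, 0 meaning no effect and 100 complete control, were assigned against untreated controls 14 to 21 days after treatment. Test chemicals in a surfactant-containing non-phytotoxic solvent were applied preemergence to seeded silt loam soil or postemergence to 2–18 cm plants in peat-based medium.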

[2] = test system: barnyardgrass (Echinochloa crus-galli); assay: Test F pre-/postemergence: barnyardgrass
Outline: as §1

[3] = test system: foxtail, green (green foxtail Setaria viridis); assay: Test F pre-/postemergence: foxtail, green; conditions: Preemergence
Description: Seeds of plant species selected from corn (Zea mays), soybean (Glycine max), velvetleaf (Abutilon theophrasti), lambsquarters (Chenopodium album), poinsettia, wild (wild poinsettia, Euphorbia heterophylla), pigweed, palmer (palmer pigweed, Amaranthus palmeri), waterhemp (common waterhemp, Amaranthus rudis), surinam grass (Brachiaria decumbens), crabgrass, Brazil (Brazilian crabgrass, Digitaria horizontalis), panicum, fall (fall panicum Panicum dichotomiflorum), crabgrass, large (large crabgrass, Digitaria sanguinalis), foxtail, giant (giant foxtail, Setaria faberii), foxtail, green (green foxtail Setaria viridis), goosegrass (Eleusine indica), ragweed (common ragweed, Ambrosia elatior), barnyardgrass (Echinochloa crus-galli), sandbur (southern sandbur, Cenchrus echinatus), arrowleaf sida (Sida rhombifolia), ryegrass, Italian (Italian ryegrass, Lolium multiflorum), dayflower, VA (Virginia (VA) dayflower, Commelina virginica), field bindweed (Convolvulus arvensis), cocklebur (common cocklebur, Xanthium strumarium), morningglory (Ipomoea coccinea), nightshade (eastern black nightshade, Solanum ptycanthum), kochia (Kochia scoparia), nutsedge, yellow (yellow nutsedge, Cyperus esculentus), johnsongrass (Sorghum halepense), smartweed (ladysthumb smartweed, Polygonum persicaria), and beggarticks (hairy beggarticks, Bidens pilosa), were planted into a silt loam soil and treated preemergence with test chemicals formulated in a non-phytotoxic solvent mixture which included a surfactant. At the same time, plants selected from these crop and weed species and also pigweed (Amaranthus retroflexus), waterhemp_RES1 (ALS/Triazine resistant common waterhemp, Amaranthus rudis) and waterhemp_RES2 (ALS/HPPD resistant common waterhemp, Amaranthus rudis) were planted in pots containing a planting medium comprising spaghnum peat moss, vermiculite, wetting agent and starter nutrients treated with postemergence applications of some of the test chemicals formulated in the same manner. Plants ranged in height from 2 to 18 cm for postemergence treatments (1- to 4-leaf stage).
Treated plants and controls were maintained in a greenhouse for 14 to 21 days, after which time all species were compared to controls and visually evaluated. Plant response ratings, summarized in Table E, are based on a scale of 0 to 100 where 0 is no effect and 100 is complete control. A dash (-) response means no test result.

[4] = test system: waterhemp (common waterhemp, Amaranthus rudis); assay: Test F pre-/postemergence: waterhemp
Outline: as §1

[5] = test system: dayflower, VA (Virginia (VA) dayflower, Commelina virginica); assay: Test F pre-/postemergence: dayflower, VA
Outline: as §1

[6] = Postemergence, 4 g ai/ha, scale 0 to 100
[7] = Postemergence, 8 g ai/ha, scale 0 to 100
[8] = Postemergence, 16 g ai/ha, scale 0 to 100
[9] = Postemergence, 31 g ai/ha, scale 0 to 100
[10] = Postemergence, 62 g ai/ha, scale 0 to 100
[11] = Preemergence, 4 g ai/ha, scale 0 to 100, 0 no effect, 100 complete control
[12] = Preemergence, 8 g ai/ha, scale 0 to 100, 0 no effect, 100 complete control
[13] = Preemergence, 16 g ai/ha, scale 0 to 100 (0 no effect, 100 complete control)
[14] = Preemergence, 31 g ai/ha, scale 0 to 100 (0 no effect, 100 complete control)
[15] = Preemergence, 62 g ai/ha, scale 0 to 100

Cc1nn(-c2ccc(C(F)(F)F)c(F)c2)nc1Cc1ccnc(C(F)(F)F)c1 [Compound 162]
Plant response rating, Panicum, Fall [1, 6]: 15
Plant response rating, Panicum, Fall [1, 7]: 20
Plant response rating, Panicum, Fall [1, 8]: 20
Plant response rating, Panicum, Fall [1, 9]: 25
Plant response rating, Panicum, Fall [1, 10]: 30
Plant response rating, Panicum, Fall [1, 11]: 0
Plant response rating, Panicum, Fall [1, 12]: 0
Plant response rating, Panicum, Fall [1, 13]: 100
Plant response rating, Panicum, Fall [1, 14]: 100
Plant response rating, Barnyardgrass [2, 6]: 10
Plant response rating, Barnyardgrass [2, 7]: 10
Plant response rating, Barnyardgrass [2, 8]: 10
Plant response rating, Barnyardgrass [2, 9]: 25
Plant response rating, Barnyardgrass [2, 10]: 35
Plant response rating, Barnyardgrass [2, 11]: 0
Plant response rating, Barnyardgrass [2, 12]: 20
Plant response rating, Barnyardgrass [2, 13]: 20
Plant response rating, Barnyardgrass [2, 14]: 30
Plant response rating, Barnyardgrass [2, 15]: 30
Plant response rating, Foxtail, Green ([3]; 4 g ai/ha, scale 0 to 100, 0 no effect, 100 complete control): 0
Plant response rating, Foxtail, Green ([3]; 8 g ai/ha, scale 0 to 100, 0 no effect, 100 complete control): 15
Plant response rating, Foxtail, Green ([3]; 16 g ai/ha, scale 0 to 100 (0 no effect, 100 complete control)): 80
Plant response rating, Foxtail, Green ([3]; 31 g ai/ha, scale 0 to 100 (0 no effect, 100 complete control)): 100
Plant response rating, Foxtail, Green ([3]; 62 g ai/ha, scale 0 to 100): 100
Plant response rating, Waterhemp [4, 6]: 80
Plant response rating, Waterhemp [4, 7]: 90
Plant response rating, Waterhemp [4, 8]: 90
Plant response rating, Waterhemp [4, 9]: 95
Plant response rating, Waterhemp [4, 10]: 95
Plant response rating, Waterhemp [4, 11]: 50
Plant response rating, Waterhemp [4, 12]: 85
Plant response rating, Waterhemp [4, 13]: 90
Plant response rating, Waterhemp [4, 14]: 100
Plant response rating, Dayflower, VA [5, 6]: 5
Plant response rating, Dayflower, VA [5, 7]: 15
Plant response rating, Dayflower, VA [5, 8]: 20
Plant response rating, Dayflower, VA [5, 9]: 20
Plant response rating, Dayflower, VA [5, 10]: 25
Plant response rating, Dayflower, VA [5, 11]: 0
Plant response rating, Dayflower, VA [5, 12]: 35
Plant response rating, Dayflower, VA [5, 13]: 35
Plant response rating, Dayflower, VA [5, 14]: 35
Plant response rating, Dayflower, VA [5, 15]: 65
